# Measured values reported in patent publication US20260042764A1, “COMPOSITIONS AND METHODS FOR INHIBITION OF KRAS” (TheRas, Inc., priority 2022, published 2026).
# Molecular target: T1, Avi-KRAS G12R (1-169) GppNHp/RAF1 RBD-3xFLAG (52-151) (Homo sapiens, UniProt P01116, G12R)
# T1 construct: Avi-KRAS G12R (1-169)
# Assay: Raf1-KRAS G12R-GppNHP disruption HTRF assay (Biological Example 1)
# Assay type: binding
# Details: KRAS G12R, GppNHp-loaded; Table 11
# In short: (§1)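 Read-out is HTRF signal of the KRAS–RAF1 RBD complex, reported as percentage of activity relative to DMSO (100%). Protein mix and detection reagents each incubated 1 h at room temperature with 700 rpm shaking. Buffer: 50 mM Tris pH 7.5, 100 mM NaCl, 5 mM MgCl2, 0.1% BSA, 0.01% Tween, 10% DMSO.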
# T1 sequence (P01116 1-169 isoform P01116-2 G12R): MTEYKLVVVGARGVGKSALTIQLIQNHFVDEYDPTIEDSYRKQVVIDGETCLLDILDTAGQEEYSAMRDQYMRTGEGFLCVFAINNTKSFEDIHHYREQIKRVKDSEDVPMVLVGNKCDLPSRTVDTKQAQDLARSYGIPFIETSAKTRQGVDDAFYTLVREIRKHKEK
row,SMILES,IC50
1,N#Cc1c(N)sc2c(F)ccc(-c3c(C(F)(F)F)cc4c(N5CC6CCC(C5)C6O)nc(OC[C@@]56CCCN5C[C@H](F)C6)nc4c3F)c12 (stereo partly drawn) [Compound 128],100 to 1000 nM
2,N#Cc1c(N)sc2c(F)ccc(-c3c(C(F)(F)F)cc4c(N5CC(CO)C5)nc(OC[C@@]56CCCN5C[C@H](F)C6)nc4c3F)c12 [Compound 129],100 to 1000 nM
3,N#Cc1c(N)sc2c(F)ccc(-c3c(C(F)(F)F)cc4c(N5CC6CCC(C5)O6)nc(OC[C@@]56CCCN5C[C@H](F)C6)nc4c3F)c12 [Compound 130],100 to 1000 nM
4,N#Cc1c(N)sc2c(F)ccc(-c3c(C(F)(F)F)cc4c(N5C6CCC5COC6)nc(OC[C@@]56CCCN5C[C@H](F)C6)nc4c3F)c12 [Compound 131],100 to 1000 nM
5,CN(c1nc(OC[C@@]23CCCN2C[C@H](F)C3)nc2c(F)c(-c3ccc(F)c4sc(N)c(C#N)c34)c(C(F)(F)F)cc12)[C@@H]1CCOC1 [Compound 132],100 to 1000 nM
6,CN(c1nc(OC[C@@]23CCCN2C[C@H](F)C3)nc2c(F)c(-c3ccc(F)c4sc(N)c(C#N)c34)c(C(F)(F)F)cc12)[C@H]1CCOC1 [Compound 133],100 to 1000 nM

# Tested on: GP2d cells (KRAS G12D)
# Assay: Cell-based pERK HTRF assay in GP2d cell (Biological Example 2)
# Details: GP2d, GP2d (KRAS G12D) cells, pERK HTRF
# In short: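 Treatment with test compounds lasted one hour in DMEM containing 10% FBS, with DMSO held at 0.25%. Dilution series: 9 points, half-log spacing, highest 1 μM or 100 nM. Lysates were incubated 4–24 h at room temperature with antibody mix, then HTRF was read at 320 nm excitation.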
row,SMILES,IC50
1,N#Cc1c(N)sc2c(F)ccc(-c3c(C(F)(F)F)cc4c(N5CC6CCC(C5)C6O)nc(OC[C@@]56CCCN5C[C@H](F)C6)nc4c3F)c12 (stereo partly drawn) [Compound 128],< 100 nM
2,N#Cc1c(N)sc2c(F)ccc(-c3c(C(F)(F)F)cc4c(N5CC(CO)C5)nc(OC[C@@]56CCCN5C[C@H](F)C6)nc4c3F)c12 [Compound 129],< 100 nM
3,N#Cc1c(N)sc2c(F)ccc(-c3c(C(F)(F)F)cc4c(N5CC6CCC(C5)O6)nc(OC[C@@]56CCCN5C[C@H](F)C6)nc4c3F)c12 [Compound 130],< 100 nM
4,N#Cc1c(N)sc2c(F)ccc(-c3c(C(F)(F)F)cc4c(N5C6CCC5COC6)nc(OC[C@@]56CCCN5C[C@H](F)C6)nc4c3F)c12 [Compound 131],< 100 nM
5,CN(c1nc(OC[C@@]23CCCN2C[C@H](F)C3)nc2c(F)c(-c3ccc(F)c4sc(N)c(C#N)c34)c(C(F)(F)F)cc12)[C@@H]1CCOC1 [Compound 132],< 100 nM
6,CN(c1nc(OC[C@@]23CCCN2C[C@H](F)C3)nc2c(F)c(-c3ccc(F)c4sc(N)c(C#N)c34)c(C(F)(F)F)cc12)[C@H]1CCOC1 [Compound 133],< 100 nM

# Molecular target: T2, Avi-KRAS G12D (1-169) GppNHp/RAF1 RBD-3xFLAG (52-151) (Homo sapiens, UniProt P01116, G12D)
# T2 construct: Avi-KRAS G12D (1-169)
# T2 sequence (P01116 1-169 isoform P01116-2 G12D): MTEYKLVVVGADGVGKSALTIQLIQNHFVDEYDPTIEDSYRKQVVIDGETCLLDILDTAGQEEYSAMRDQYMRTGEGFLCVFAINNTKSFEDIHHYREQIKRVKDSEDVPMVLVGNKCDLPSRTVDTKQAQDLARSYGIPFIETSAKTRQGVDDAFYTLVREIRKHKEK
# Assay: Raf1-KRAS G12D-GppNHP disruption HTRF assay (Biological Example 1)
# Assay type: binding
# Details: KRAS G12D, GppNHp-loaded; Table 11
# In short: as §1
row,SMILES,IC50
1,N#Cc1c(N)sc2c(F)ccc(-c3c(C(F)(F)F)cc4c(N5CC6CCC(C5)C6O)nc(OC[C@@]56CCCN5C[C@H](F)C6)nc4c3F)c12 (stereo partly drawn) [Compound 128],100 to 1000 nM
2,N#Cc1c(N)sc2c(F)ccc(-c3c(C(F)(F)F)cc4c(N5CC(CO)C5)nc(OC[C@@]56CCCN5C[C@H](F)C6)nc4c3F)c12 [Compound 129],100 to 1000 nM
3,N#Cc1c(N)sc2c(F)ccc(-c3c(C(F)(F)F)cc4c(N5CC6CCC(C5)O6)nc(OC[C@@]56CCCN5C[C@H](F)C6)nc4c3F)c12 [Compound 130],100 to 1000 nM
4,N#Cc1c(N)sc2c(F)ccc(-c3c(C(F)(F)F)cc4c(N5C6CCC5COC6)nc(OC[C@@]56CCCN5C[C@H](F)C6)nc4c3F)c12 [Compound 131],100 to 1000 nM
5,CN(c1nc(OC[C@@]23CCCN2C[C@H](F)C3)nc2c(F)c(-c3ccc(F)c4sc(N)c(C#N)c34)c(C(F)(F)F)cc12)[C@@H]1CCOC1 [Compound 132],100 to 1000 nM
6,CN(c1nc(OC[C@@]23CCCN2C[C@H](F)C3)nc2c(F)c(-c3ccc(F)c4sc(N)c(C#N)c34)c(C(F)(F)F)cc12)[C@H]1CCOC1 [Compound 133],100 to 1000 nM

# Molecular target: T3, Avi-KRAS G12V (1-169) GppNHp/RAF1 RBD-3xFLAG (52-151) (Homo sapiens, UniProt P01116, G12V)
# T3 construct: Avi-KRAS G12V (1-169)
# T3 sequence (P01116 1-169 isoform P01116-2 G12V): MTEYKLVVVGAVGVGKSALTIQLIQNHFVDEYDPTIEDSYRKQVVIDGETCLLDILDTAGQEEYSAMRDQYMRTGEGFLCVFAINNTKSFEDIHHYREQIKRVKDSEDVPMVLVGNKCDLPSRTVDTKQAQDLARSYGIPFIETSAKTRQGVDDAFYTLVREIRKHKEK
# Assay: Raf1-KRAS G12V-GppNHP disruption HTRF assay (Biological Example 1)
# Assay type: binding
# Details: KRAS G12V, GppNHp-loaded; Table 11
# In short: as §1
row,SMILES,IC50
1,N#Cc1c(N)sc2c(F)ccc(-c3c(C(F)(F)F)cc4c(N5CC6CCC(C5)C6O)nc(OC[C@@]56CCCN5C[C@H](F)C6)nc4c3F)c12 (stereo partly drawn) [Compound 128],1000 to 10000 nM
2,N#Cc1c(N)sc2c(F)ccc(-c3c(C(F)(F)F)cc4c(N5CC(CO)C5)nc(OC[C@@]56CCCN5C[C@H](F)C6)nc4c3F)c12 [Compound 129],100 to 1000 nM
3,N#Cc1c(N)sc2c(F)ccc(-c3c(C(F)(F)F)cc4c(N5CC6CCC(C5)O6)nc(OC[C@@]56CCCN5C[C@H](F)C6)nc4c3F)c12 [Compound 130],1000 to 10000 nM
4,N#Cc1c(N)sc2c(F)ccc(-c3c(C(F)(F)F)cc4c(N5C6CCC5COC6)nc(OC[C@@]56CCCN5C[C@H](F)C6)nc4c3F)c12 [Compound 131],100 to 1000 nM
5,CN(c1nc(OC[C@@]23CCCN2C[C@H](F)C3)nc2c(F)c(-c3ccc(F)c4sc(N)c(C#N)c34)c(C(F)(F)F)cc12)[C@@H]1CCOC1 [Compound 132],100 to 1000 nM
6,CN(c1nc(OC[C@@]23CCCN2C[C@H](F)C3)nc2c(F)c(-c3ccc(F)c4sc(N)c(C#N)c34)c(C(F)(F)F)cc12)[C@H]1CCOC1 [Compound 133],100 to 1000 nM

# Molecular target: T4, Avi-KRAS WT (1-169) GppNHp/RAF1 RBD-3xFLAG (52-151) (Homo sapiens, UniProt P01116)
# T4 construct: Avi-KRAS WT (1-169)
# T4 sequence (P01116 1-169 isoform P01116-2): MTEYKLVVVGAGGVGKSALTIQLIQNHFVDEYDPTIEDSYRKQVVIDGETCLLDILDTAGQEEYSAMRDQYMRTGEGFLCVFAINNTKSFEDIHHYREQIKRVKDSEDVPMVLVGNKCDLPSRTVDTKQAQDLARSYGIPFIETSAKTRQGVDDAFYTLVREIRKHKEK
# Assay: Raf1-KRAS WT-GppNHP disruption HTRF assay (Biological Example 1)
# Assay type: binding
# Details: KRAS WT, GppNHp-loaded; Table 11
# In short: as §1
row,SMILES,IC50
1,N#Cc1c(N)sc2c(F)ccc(-c3c(C(F)(F)F)cc4c(N5CC6CCC(C5)C6O)nc(OC[C@@]56CCCN5C[C@H](F)C6)nc4c3F)c12 (stereo partly drawn) [Compound 128],100 to 1000 nM
2,N#Cc1c(N)sc2c(F)ccc(-c3c(C(F)(F)F)cc4c(N5CC(CO)C5)nc(OC[C@@]56CCCN5C[C@H](F)C6)nc4c3F)c12 [Compound 129],100 to 1000 nM
3,N#Cc1c(N)sc2c(F)ccc(-c3c(C(F)(F)F)cc4c(N5CC6CCC(C5)O6)nc(OC[C@@]56CCCN5C[C@H](F)C6)nc4c3F)c12 [Compound 130],100 to 1000 nM
4,N#Cc1c(N)sc2c(F)ccc(-c3c(C(F)(F)F)cc4c(N5C6CCC5COC6)nc(OC[C@@]56CCCN5C[C@H](F)C6)nc4c3F)c12 [Compound 131],100 to 1000 nM
5,CN(c1nc(OC[C@@]23CCCN2C[C@H](F)C3)nc2c(F)c(-c3ccc(F)c4sc(N)c(C#N)c34)c(C(F)(F)F)cc12)[C@@H]1CCOC1 [Compound 132],100 to 1000 nM
6,CN(c1nc(OC[C@@]23CCCN2C[C@H](F)C3)nc2c(F)c(-c3ccc(F)c4sc(N)c(C#N)c34)c(C(F)(F)F)cc12)[C@H]1CCOC1 [Compound 133],100 to 1000 nM
